Source: ChEMBL document CHEMBL1255374, “Species distribution and in vitro antifungal susceptibility patterns of 75 clinical isolates of Fusarium spp. from northern Italy” (2008)
Converted amounts (≈) assume the structure as drawn.

How the values were obtained:
Type in all cases: functional
[1] = test system: Fusarium subglutinans; test: Antimicrobial activity against Fusarium subglutinans after 48 hrs by broth microdilution assay
[2] = test system: Fusarium solani; test: Antimicrobial activity against Fusarium solani after 48 hrs by broth microdilution assay
[3] = test system: Fusarium verticillioides; test: Antimicrobial activity against Fusarium verticillioides after 48 hrs by broth microdilution assay
[4] = test system: Fusarium proliferatum; test: Antimicrobial activity against Fusarium proliferatum after 48 hrs by broth microdilution assay
[5] = test system: Fusarium oxysporum; test: Antimicrobial activity against Fusarium oxysporum after 48 hrs by broth microdilution assay

| Compound | MIC [1] [mg/L] | MIC [2] [mg/L] | MIC [3] [mg/L] | MIC [4] [mg/L] | MIC [5] [mg/L] |
| --- | --- | --- | --- | --- | --- |
| C[C@@H]1[C@H](O)[C@@H](C)/C=C/C=C/C=C/C=C/C=C/C=C/C=C/[C@H](O[C@@H]2O[C@H](C)[C@@H](O)[C@H](N)[C@@H]2O)C[C@@H]2O[C@](O)(C[C@@H](O)C[C@@H](O)[C@H](O)CC[C@@H](O)C[C@@H](O)CC(=O)O[C@H]1C)C[C@H](O)[C@H]2C(=O)O [AMPHOTERICIN B] | 3.3 (≈ 3.57 µM) | 1.25 (≈ 1.35 µM) | 1.53 (≈ 1.66 µM) | 1.7 (≈ 1.84 µM) | 2.3 (≈ 2.49 µM) |
| CCC(C)n1ncn(-c2ccc(N3CCN(c4ccc(OCC5COC(Cn6cncn6)(c6ccc(Cl)cc6Cl)O5)cc4)CC3)cc2)c1=O (stereo not given) [ITRACONAZOLE] | 10.8 (≈ 15.3 µM) | > 16 | 3.33 (≈ 4.72 µM) | > 16 | > 16 |
| CC[C@@H]([C@H](C)O)n1ncn(-c2ccc(N3CCN(c4ccc(OC[C@@H]5CO[C@@](Cn6cncn6)(c6ccc(F)cc6F)C5)cc4)CC3)cc2)c1=O [POSACONAZOLE] | 10.8 (≈ 15.3 µM) | 15.2 (≈ 21.7 µM) | 0.46 (≈ 0.656 µM) | 6.4 (≈ 9.13 µM) | 2.7 (≈ 3.85 µM) |
| C[C@@H](c1ncncc1F)[C@](O)(Cn1cncn1)c1ccc(F)cc1F [VORICONAZOLE] | 5.6 (≈ 16 µM) | 9.21 (≈ 26.4 µM) | 1.74 (≈ 4.98 µM) | 4.2 (≈ 12 µM) | 4 (≈ 11.5 µM) |
